Assay [1] addresses T1, LTA4H (leukotriene A4 hydrolase) (Homo sapiens, UniProt P09960).
T1 sequence (P09960 1-611): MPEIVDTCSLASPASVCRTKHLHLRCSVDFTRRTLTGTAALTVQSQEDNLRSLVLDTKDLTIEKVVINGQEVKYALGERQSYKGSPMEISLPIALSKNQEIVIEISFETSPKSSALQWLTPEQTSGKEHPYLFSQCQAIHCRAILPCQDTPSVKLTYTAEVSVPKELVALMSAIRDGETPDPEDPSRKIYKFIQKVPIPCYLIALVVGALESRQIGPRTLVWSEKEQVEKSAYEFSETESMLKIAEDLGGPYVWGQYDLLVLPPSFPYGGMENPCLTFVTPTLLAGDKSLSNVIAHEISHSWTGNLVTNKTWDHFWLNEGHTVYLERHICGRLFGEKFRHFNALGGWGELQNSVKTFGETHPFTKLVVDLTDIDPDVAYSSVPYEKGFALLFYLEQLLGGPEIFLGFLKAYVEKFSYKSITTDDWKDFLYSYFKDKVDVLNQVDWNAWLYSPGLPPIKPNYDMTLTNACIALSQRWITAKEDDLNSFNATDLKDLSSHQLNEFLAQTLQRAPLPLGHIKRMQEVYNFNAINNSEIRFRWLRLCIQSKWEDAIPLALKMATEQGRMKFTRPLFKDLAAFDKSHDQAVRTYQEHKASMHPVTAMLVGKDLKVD
As to the kind of experiment: LTA4H enzyme inhibition (EnzIC50). The class given is biochemical.

For the next assay, the system named is hWB. Nature of the assay: hWB assay. The class given is cell-based. The note with it: Homo sapiens.
In assay [2] the test system is ionophore-induced LTB4 production. The settings on record: oral administration, mouse blood ex vivo; cited from earlier work.
Assay [3] has the same test system. The note with it: oral administration, rat peritoneum in vivo; cited from earlier work.
Another assay deals with colitis symptoms. The note with it: eight weeks of treatment, primate model; cited from earlier work.

Structures can show the parent of a compound that is named as a salt. Where two headings read alike, the source gives them in different places.

Consider `COC(=O)[C@H](N)Cc1ccc(Oc2ccc(Oc3ccccc3)cc2)cc1` [Example 1, (R)-2-Amino-3-[4-(4-phenoxy-phenoxy)-phenyl]-propionic acid methyl ester hydrochloride], for which the IC50 – broadly, the concentration at which inhibition is half-maximal – in assay [1] was in the range of 5 to 20 µM. Still for that read-out and setting: then `COC(=O)[C@H](N)Cc1ccc(Oc2ccc(C(=O)c3ccccc3)cc2)cc1` [Example 2, (R)-2-Amino-3-[4-(4-benzoyl-phenoxy)-phenyl]-propionic acid methyl ester hydrochloride], with less than 5 µM.

In the case of `N[C@@H](CO)Cc1ccc(Oc2ccc(Oc3ccccc3)cc2)cc1` [Example 3, (R)-2-Amino-3-[4-(4-phenoxy-phenoxy)-phenyl]-propan-1-ol hydrochloride], in assay [1], the IC50 was less than 5 µM. `N[C@H](CO)Cc1ccc(Oc2ccc(Oc3ccccc3)cc2)cc1` [Example 4, (S)-2-Amino-3-[4-(4-phenoxy-phenoxy)-phenyl]-propan-1-ol hydrochloride]: the half-maximal inhibitory concentration (IC50) was less than 5 µM in assay [1] and 5 to 20 µM in the assay on hWB. Molecule `N[C@@H](Cc1ccc(Oc2ccc(Cc3ccc(Cl)cc3)cc2)cc1)C(=O)O` [Example 5, S)-2-Amino-3-{4-[4-(4-chloro-benzyl)-phenoxy]-phenyl}-propionic acid hydrochloride] had an IC50 in assay [1] of 5 to 20 µM. `N[C@@H](Cc1ccc(Oc2ccc(Oc3ccccc3)cc2)cc1)C(=O)O` [Example 6, (2S)-2-Amino-3-[4-(4-phenoxyphenoxy)phenyl]propanoic acid hydrochloride]: the IC50 (in assay [1]; in the assay with hWB) was less than 5 µM throughout. Take `CN[C@H](CO)Cc1ccc(Oc2ccc(Oc3ccccc3)cc2)cc1` [Example 8, (2S)-2-(Methylamino)-3-[4-(4-phenoxyphenoxy)phenyl]propan-1-ol hydrochloride]: the IC50 in assay [1] lay within 5 to 20 µM. `CN[C@H](CO)Cc1ccc(Oc2ccc(Cc3ccccc3)cc2)cc1` [Example 9, (2S)-3-[4-(4-Benzylphenoxy)phenyl]-2-(methylamino)propan-1-ol hydrochloride] had an IC50 in assay [1] of 5 to 20 µM. On the same count and under the same terms, then `N[C@@H](Cc1ccc(Oc2ccc(Oc3ccccc3)cc2)cc1)C(O)C(=O)O` (stereo partly drawn) [Example 10, (3S)-3-Amino-2-hydroxy-4-[4-(4-phenoxyphenoxy)phenyl]butanoic acid hydrochloride], with less than 5 µM. On the same count and under the same terms, under `N[C@@H](Cc1ccc(Oc2ccc(Oc3ccc(-c4nccs4)cc3)cc2)cc1)C(=O)O` [Example 11, (S)-2-Amino-3-{4-[4-(4-thiazol-2-yl-phenoxy)-phenoxy]-phenyl}-propionic acid] stands less than 5 µM. In the case of `N[C@H](CO)Cc1ccc(Oc2ccc(Oc3ccc(-c4nccs4)cc3)cc2)cc1` [Example 12, (S)-2-Amino-3-{4-[4-(4-thiazol-2-yl-phenoxy)-phenoxy]-phenyl}-propan-1-ol], the IC50 (in assay [1]; with hWB) was less than 5 µM throughout. For `N[C@H](CNO)Cc1ccc(Oc2ccc(Oc3ccc(Cl)cc3)cc2)cc1` [Example 14], the IC50 (in assay [1]; in the assay on hWB) was less than 5 µM in each case. For the molecule `N[C@@H](C(=O)O)c1ccc(Oc2ccc(Cc3ccccc3)cc2)cc1` [Example 15, (R)-Amino-[4-(4-benzyl-phenoxy)-phenyl]-acetic acid hydrochloride], in assay [1], the IC50 was less than 5 µM. Same read-out and setting: under `COc1ccc(Oc2ccc(C[C@H](N)CO)cc2)cc1` [Example 19, (S)-2-Amino-3-[4-(4-methoxyphenoxy)-phenyl]-propan-1-ol hydrochloric acid salt] stands less than 5 µM. With `N[C@H](CO)Cc1ccc(Oc2ccc(Cc3ccccc3)cc2)cc1` [Example 20, (S)-2-Amino-3-[4-(4-benzylphenoxy)-phenyl]-propan-1-ol hydrochloric acid salt], the IC50 (in assay [1]; with hWB) was less than 5 µM in each case. Molecule `N[C@H](CNO)Cc1ccc(Oc2ccc(Cl)cc2)cc1` [Example 21, N-{(S)-2-amino-3-[4-(4-chloro-phenoxy)-phenyl]-propyl}-hydroxyamine HCl salt] had a concentration for half-maximal inhibition (IC50) in assay [1] of less than 5 µM.

Turning to `CC(=O)N(O)C[C@@H](N)Cc1ccc(Oc2ccc(Cl)cc2)cc1` [Example 22, N-{(S)-2-amino-3-[4-(4-chloro-phenoxy)-phenyl]-propyl}-N-hydroxy-acetamide HCl salt], the IC50 (in assay [1]; in the assay on hWB) was less than 5 µM each time. As to `CN(CCCOc1ccc(Cc2ccccc2)cc1)CCC(=O)O.Cl` [SC57461], the “inhibition of ionophore-induced LTB4 production” value in assay [2] and in assay [3] was “inhibition of ionophore-induced LTB4 production” in each case. Moreover, the colitis symptoms result in the assay with colitis symptoms was “significantly improved colitis symptoms”.

The values are drawn from US7989480B2, “Aryl amino acid derivatives as inhibitors for treating inflammation” (Decode Genetics EHF, priority 2006, dated 2011).
